Data from ChEMBL document CHEMBL4828736, “Discovery of ASTX029, A Clinical Candidate Which Modulates the Phosphorylation and Catalytic Activity of ERK1/2” (J Med Chem, 2021).

Legend:
[1] = in vitro; settings: human, microsomes
[2] = target: CYP3A4 (Homo sapiens, UniProt P08684); test: in vitro; settings: recombinant enzyme
[3] = in vitro; settings: CD1, mouse, microsomes
[4] = physchem; settings: buffer, pH 7.4
[5] = system: COLO 205; test: cells; format: functional, cell-based; settings: Homo sapiens, COLO 205, 96 h
[6] = in vivo; settings: BALB/c, mouse, iv, 0.5 mg/kg
[7] = in vivo; settings: BALB/c, mouse, iv, 0.5 mg/kg; remark: listed apart in the source
[8] = in vivo; settings: BALB/c, mouse, po, 5 mg/kg
[9] = in vivo; settings: BALB/c, mouse, po, 5 mg/kg; remark: listed apart in the source
[10] = in vivo; settings: BALB/c, mouse, po, 5 mg/kg; remark: listed apart in the source
[11] = in vivo; settings: rat, iv, 0.5 mg/kg
[12] = in vivo; settings: Beagle, dog, iv
[13] = in vivo; settings: rat, iv, 0.5 mg/kg; remark: listed apart in the source
[14] = in vivo; settings: Beagle, dog, iv; remark: listed apart in the source
[15] = in vivo; settings: rat, po, 1 mg/kg
[16] = in vivo; settings: rat, po, 50 mg/kg
[17] = in vivo; settings: rat, po, 100 mg/kg
[18] = in vivo; settings: Beagle, dog, po, 0.5 mg/kg
[19] = in vivo; settings: rat, po, 1 mg/kg; remark: listed apart in the source
[20] = in vivo; settings: rat, po, 50 mg/kg; remark: listed apart in the source
[21] = in vivo; settings: rat, po, 100 mg/kg; remark: listed apart in the source
[22] = in vivo; settings: Beagle, dog, po, 0.5 mg/kg; remark: listed apart in the source
[23] = in vivo; settings: rat, po, 1 mg/kg; remark: listed apart in the source
[24] = in vivo; settings: rat, po, 50 mg/kg; remark: listed apart in the source
[25] = in vivo; settings: rat, po, 100 mg/kg; remark: listed apart in the source
[26] = in vivo; settings: Beagle, dog, po, 0.5 mg/kg; remark: listed apart in the source
[27] = in vivo; settings: rat, po, 1 mg/kg; remark: listed apart in the source
[28] = in vivo; settings: rat, po, 50 mg/kg; remark: listed apart in the source
[29] = in vivo; settings: rat, po, 100 mg/kg; remark: listed apart in the source
[30] = in vivo; settings: Beagle, dog, po, 0.5 mg/kg; remark: listed apart in the source
[31] = in vivo; settings: rat, po, 1 mg/kg; remark: listed apart in the source
[32] = in vivo; settings: rat, po, 50 mg/kg; remark: listed apart in the source
[33] = in vivo; settings: rat, po, 100 mg/kg; remark: listed apart in the source
[34] = in vivo; settings: Beagle, dog, po, 0.5 mg/kg; remark: listed apart in the source
[35] = system: A-375; test: cells; format: functional, cell-based; settings: Homo sapiens, A-375, 96 h

CYP3A4, sequence (P08684 whole entry): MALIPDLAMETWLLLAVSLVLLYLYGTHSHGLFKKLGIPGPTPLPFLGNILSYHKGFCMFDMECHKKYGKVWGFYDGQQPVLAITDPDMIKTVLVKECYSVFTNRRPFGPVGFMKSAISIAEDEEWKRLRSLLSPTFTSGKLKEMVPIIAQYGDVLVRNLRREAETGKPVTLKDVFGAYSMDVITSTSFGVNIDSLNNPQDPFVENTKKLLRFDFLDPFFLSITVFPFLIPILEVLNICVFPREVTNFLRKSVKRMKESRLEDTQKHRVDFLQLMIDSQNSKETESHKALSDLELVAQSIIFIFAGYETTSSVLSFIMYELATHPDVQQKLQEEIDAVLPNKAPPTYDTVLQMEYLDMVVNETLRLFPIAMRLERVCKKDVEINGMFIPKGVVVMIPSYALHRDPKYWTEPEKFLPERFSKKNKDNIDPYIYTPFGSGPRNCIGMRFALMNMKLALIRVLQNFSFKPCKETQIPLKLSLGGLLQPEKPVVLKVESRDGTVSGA

COc1cc(F)cc([C@@H](CO)NC(=O)CN2C(=O)c3cc(-c4nc(NC5CCOCC5)ncc4Cl)ccc3[C@H]2C)c1
half-life at 40 min, 1 µM [1]: 22 min | half-life at 40 min, 1 µM [2]: 7.3 min

Cc1cccc([C@@H](CO)NC(=O)[C@@H](C)N2Cc3ccc(-c4nc(NC5CCOCC5)ncc4Cl)cc3C2=O)c1
half-life at 40 min, 1 µM [3]: 31 min | half-life at 40 min, 1 µM [1]: 12 min | chromatographic logD [4]: 3.9

COc1cc(F)cc([C@@H](CO)NC(=O)[C@@H](C)N2Cc3ccc(-c4nc(Nc5cnn(C)n5)ncc4Cl)cc3C2=O)c1
IC50 [5]: 15 nM | clearance at 24 h [6]: 8.3 mL/min/kg | Vd at 24 h [7]: 0.46 L/kg | AUC at 24 h [8]: 6400 ng·h/mL | half-life at 24 h [9]: 90 min | bioavailability at 24 h [10]: 64% | half-life at 40 min, 1 µM [3]: 26 min | half-life at 40 min, 1 µM [1]: 26 min | half-life at 40 min, 1 µM [2]: 19 min | chromatographic logD [4]: 3.7

COc1cccc([C@@H](CO)NC(=O)[C@@H](C)N2Cc3ccc(-c4nc(NC5CCOCC5)ncc4Cl)cc3C2=O)c1
half-life at 40 min, 1 µM [3]: 100 min | half-life at 40 min, 1 µM [1]: 27 min

O=C(CN1Cc2ccc(-c3nc(NC4CCOCC4)ncc3Cl)cc2C1=O)NCc1ccccc1
half-life at 40 min, 1 µM [3]: 65 min | half-life at 40 min, 1 µM [1]: 32 min

C[C@H](C(=O)N[C@H](CO)c1cc(F)cc(OCCN(C)C)c1)N1Cc2ccc(-c3nc(NC4CCOCC4)ncc3Cl)cc2C1=O
half-life at 40 min, 1 µM [1]: 60 min | half-life at 40 min, 1 µM [2]: 10 min

COc1cc(F)cc([C@@H](CO)NC(=O)[C@@H](C)N2Cc3ccc(-c4nc(NC5CCOCC5)ncc4Cl)cc3C2=O)c1 [BEROTERKIB ANHYDROUS]
clearance at 24 h [6]: 22 mL/min/kg | Vd at 24 h [7]: 0.68 L/kg | AUC at 24 h [8]: 1600 ng·h/mL | half-life at 24 h [9]: 174 min | bioavailability at 24 h [10]: 42% | clearance at 24 h [11]: 18 mL/min/kg | clearance at 24 h [12]: 0.56 mL/min/kg | Vd at 24 h [13]: 0.77 L/kg | Vd at 24 h [14]: 0.071 L/kg | half-life at 24 h [15]: 90 min | half-life at 24 h [16]: 168 min | half-life at 24 h [17]: 150 min | half-life at 24 h [18]: 66 min | Tmax at 24 h [19]: 30 min | Tmax at 24 h [20]: 120 min | Tmax at 24 h [21]: 120 min | Tmax at 24 h [22]: 60 min | Cmax at 24 h [23]: 25.8 ng/mL | Cmax at 24 h [24]: 2740 ng/mL | Cmax at 24 h [25]: 15700 ng/mL | Cmax at 24 h [26]: 3660 ng/mL | AUC at 24 h [27]: 57.9 ng·h/mL | AUC at 24 h [28]: 17500 ng·h/mL | AUC at 24 h [29]: 118000 ng·h/mL | AUC at 24 h [30]: 12300 ng·h/mL | bioavailability at 24 h [31]: 6.1% | bioavailability at 24 h [32]: 35% | bioavailability at 24 h [33]: > 100% | bioavailability at 24 h [34]: 91% | half-life at 40 min, 1 µM [3]: 46 min | half-life at 40 min, 1 µM [1]: 33 min | chromatographic logD [4]: 3.8

O=C(CN1Cc2ccc(-c3nc(NC4CCOCC4)ncc3Cl)cc2C1=O)N1CCCc2ccccc2C1
half-life at 40 min, 1 µM [3]: < 5 min | half-life at 40 min, 1 µM [1]: < 5 min

COc1cc(F)cc([C@@H](CO)NC(=O)CN2Cc3ccc(-c4nc(NC5CCOCC5)ncc4Cl)cc3C2=O)c1
IC50 [35]: 4 nM | clearance at 24 h [6]: 54 mL/min/kg | Vd at 24 h [7]: 1.4 L/kg | AUC at 24 h [8]: 150 ng·h/mL | half-life at 24 h [9]: 90 min | bioavailability at 24 h [10]: 10% | half-life at 40 min, 1 µM [3]: 86 min | half-life at 40 min, 1 µM [1]: 31 min | chromatographic logD [4]: 3.3

O=C(CN1Cc2ccc(-c3nc(NC4CCOCC4)ncc3Cl)cc2C1=O)N[C@@]1(CO)CCc2ccccc21
clearance at 24 h [6]: 35 mL/min/kg | Vd at 24 h [7]: 0.91 L/kg | AUC at 24 h [8]: 960 ng·h/mL | half-life at 24 h [9]: 53.4 min | bioavailability at 24 h [10]: 40% | half-life at 40 min, 1 µM [3]: 20 min | half-life at 40 min, 1 µM [1]: 10 min | chromatographic logD [4]: 3.6

COc1cc(F)cc([C@@H](CO)NC(=O)[C@@H](C)N2Cc3ccc(-c4nc(N[C@@H](C)CO)ncc4Cl)cc3C2=O)c1
clearance at 24 h [6]: 23 mL/min/kg | Vd at 24 h [7]: 1.4 L/kg | AUC at 24 h [8]: 310 ng·h/mL | half-life at 24 h [9]: 108 min | bioavailability at 24 h [10]: 9% | half-life at 40 min, 1 µM [1]: 28 min | half-life at 40 min, 1 µM [2]: 29 min | chromatographic logD [4]: 3.1
